Data as given in BindingDB's records for doi:10.1021/acs.jmedchem.0c01488 (West China Hospital of Sichuan University, 2020).

What was measured:
[1] = Inhibition of FLT3 ITD mutant in human MOLM13 cells assessed as reduction in cell viability incubated for 72 hrs by MTT assay
[2] = Inhibition of JAK2 V617F mutant in mouse BaF3 cells assessed as reduction in cell viability incubated for 72 hrs by MTT assay
[3] = Inhibition of JAK2 V617F mutant in human SET-2 cells assessed as reduction in cell viability incubated for 72 hrs by MTT assay

SMILES: Cc1cnc(Nc2ccc(N3CCC(N(C)CCO)CC3)c(F)c2)nc1-c1cnn(C(C)C)c1
- IC50 [1]: 72 nM

SMILES: Cc1cnc(Nc2ccc3c(c2)CCN3CCO)nc1-c1cnn(C(C)C)c1
- IC50 [2]: 4390 nM
- IC50 [3]: 3790 nM
- IC50 [1]: 2060 nM

SMILES: Cc1cnc(Nc2ccc3c(c2)CN(CCO)C3)nc1-c1cnn(C(C)C)c1
- IC50 [1]: 1780 nM

SMILES: Cc1cnc(Nc2ccc3c(c2)CCN(CCO)C3)nc1-c1cnn(C(C)C)c1
- IC50 [2]: 431 nM
- IC50 [3]: 323 nM
- IC50 [1]: 1260 nM

SMILES: Cc1cnc(Nc2ccc3c(c2)CCN(CCCO)C3)nc1-c1cnn(C(C)C)c1
- IC50 [2]: 365 nM
- IC50 [3]: 394 nM
- IC50 [1]: 1320 nM

SMILES: CC(C)n1cc(-c2nc(Nc3ccc4c(c3)CCN(C(=O)CO)C4)ncc2F)cn1
- IC50 [2]: 679 nM
- IC50 [3]: 574 nM
- IC50 [1]: 453 nM

SMILES: Cc1cnc(Nc2ccc3c(c2)CCN(C(=O)Nc2cccc(Cl)c2)C3)nc1-c1cnn(C(C)C)c1
- IC50 [2]: 2180 nM
- IC50 [3]: 3450 nM
- IC50 [1]: 2070 nM

SMILES: CCNC(=O)N1CCc2cc(Nc3ncc(C)c(-c4cnn(C(C)C)c4)n3)ccc2C1
- IC50 [2]: 1890 nM
- IC50 [3]: 2350 nM
- IC50 [1]: 1070 nM

SMILES: CC(C)n1cc(-c2nc(Nc3ccc4c(c3)CCN(CCCO)C4)ncc2F)cn1
- IC50 [2]: 392 nM
- IC50 [3]: 311 nM
- IC50 [1]: 453 nM

SMILES: CCCNC(=O)N1CCc2cc(Nc3ncc(C)c(-c4cnn(C(C)C)c4)n3)ccc2C1
- IC50 [2]: 1210 nM
- IC50 [3]: 1760 nM
- IC50 [1]: 2070 nM

SMILES: Cc1cnc(Nc2cc3c(cc2F)CN(CCO)CC3)nc1-c1cnn(C(C)C)c1
- IC50 [2]: 2570 nM
- IC50 [3]: 4460 nM
- IC50 [1]: > 5000 nM

SMILES: CC(C)n1cc(-c2nc(Nc3ccc4c(c3)CCN(CCO)C4)ncc2F)cn1
- IC50 [2]: 760 nM
- IC50 [3]: 651 nM
- IC50 [1]: 547 nM

SMILES: CC(C)n1cc(-c2nc(Nc3ccc4c(c3)CCN(CCCCO)C4)ncc2F)cn1
- IC50 [2]: 445 nM
- IC50 [3]: 604 nM
- IC50 [1]: 455 nM

SMILES: CC(C)n1cc(-c2nc(Nc3ccc4c(c3)CCN(CCCCCO)C4)ncc2F)cn1
- IC50 [2]: 420 nM
- IC50 [3]: 492 nM
- IC50 [1]: 353 nM

SMILES: Cc1cnc(Nc2ccc3c(c2)CCN(CCCCO)C3)nc1-c1cnn(C(C)C)c1
- IC50 [2]: 234 nM
- IC50 [3]: 268 nM
- IC50 [1]: 879 nM

SMILES: Cc1cnc(Nc2ccc3c(c2)CCN(CCCCCO)C3)nc1-c1cnn(C(C)C)c1
- IC50 [1]: 965 nM

SMILES: CCOCCN1CCc2cc(Nc3ncc(C)c(-c4cnn(C(C)C)c4)n3)ccc2C1
- IC50 [2]: 302 nM
- IC50 [3]: 339 nM
- IC50 [1]: 568 nM

SMILES: CCCCN1CCc2cc(Nc3ncc(C)c(-c4cnn(C(C)C)c4)n3)ccc2C1
- IC50 [2]: 640 nM
- IC50 [3]: 592 nM
- IC50 [1]: 754 nM

SMILES: C=CCN1CCc2cc(Nc3ncc(C)c(-c4cnn(C(C)C)c4)n3)ccc2C1
- IC50 [2]: 452 nM
- IC50 [3]: 288 nM
- IC50 [1]: 868 nM

SMILES: Cc1cnc(Nc2ccc3c(c2)CCN(CC#N)C3)nc1-c1cnn(C(C)C)c1
- IC50 [3]: 73 nM
- IC50 [1]: 647 nM

SMILES: Cc1cnc(Nc2ccc3c(c2)CCN(CCC#N)C3)nc1-c1cnn(C(C)C)c1
- IC50 [2]: 177 nM
- IC50 [3]: 296 nM
- IC50 [1]: 356 nM

SMILES: C#CCN1CCc2cc(Nc3ncc(C)c(-c4cnn(C(C)C)c4)n3)ccc2C1
- IC50 [1]: 1480 nM

SMILES: CC#CCN1CCc2cc(Nc3ncc(C)c(-c4cnn(C(C)C)c4)n3)ccc2C1
- IC50 [2]: 908 nM
- IC50 [3]: 794 nM
- IC50 [1]: 1560 nM

SMILES: COC(=O)/C=C/CN1CCc2cc(Nc3ncc(C)c(-c4cnn(C(C)C)c4)n3)ccc2C1
- IC50 [2]: 10 nM
- IC50 [3]: 14 nM
- IC50 [1]: 497 nM

SMILES: COC(=O)CCCN1CCc2cc(Nc3ncc(C)c(-c4cnn(C(C)C)c4)n3)ccc2C1
- IC50 [2]: 938 nM
- IC50 [3]: 1040 nM
- IC50 [1]: 1290 nM

SMILES: Cc1cnc(Nc2ccc3c(c2)CCN(C(=O)/C=C/C(=O)c2ccccc2)C3)nc1-c1cnn(C(C)C)c1
- IC50 [3]: 52 nM
- IC50 [1]: 458 nM

SMILES: Cc1ccc(C(=O)/C=C/C(=O)N2CCc3cc(Nc4ncc(C)c(-c5cnn(C(C)C)c5)n4)ccc3C2)cc1
- IC50 [2]: 13 nM
- IC50 [3]: 15 nM
- IC50 [1]: 758 nM

SMILES: Cc1ccc(C(=O)CCC(=O)N2CCc3cc(Nc4ncc(C)c(-c5cnn(C(C)C)c5)n4)ccc3C2)cc1
- IC50 [2]: 784 nM
- IC50 [3]: 626 nM
- IC50 [1]: 1060 nM

SMILES: Cc1cnc(Nc2ccc3c(c2)CCN(C(=O)/C=C/CN(C)C)C3)nc1-c1cnn(C(C)C)c1
- IC50 [3]: 12 nM
- IC50 [1]: 880 nM

SMILES: Cc1cnc(Nc2ccc3c(c2)CCN(C(=O)CCCN(C)C)C3)nc1-c1cnn(C(C)C)c1
- IC50 [2]: 2480 nM
- IC50 [3]: 985 nM
- IC50 [1]: 1480 nM

SMILES: Cc1cnc(Nc2ccc3c(c2)CCN(C/C=C/C(=O)O)C3)nc1-c1cnn(C(C)C)c1
- IC50 [2]: 128 nM
- IC50 [3]: 334 nM
- IC50 [1]: 845 nM

SMILES: Cc1cnc(Nc2ccc3c(c2)CCN(C/C=C/C(=O)NCCN2CCCCC2)C3)nc1-c1cnn(C(C)C)c1
- IC50 [2]: 1200 nM
- IC50 [3]: 554 nM
- IC50 [1]: 2090 nM

SMILES: Cc1cnc(Nc2ccc3c(c2)CCN(C/C=C/C(=O)NC(C)(C)C)C3)nc1-c1cnn(C(C)C)c1
- IC50 [2]: 145 nM
- IC50 [3]: 612 nM
- IC50 [1]: 1060 nM

SMILES: CCN(CC)C(=O)/C=C/CN1CCc2cc(Nc3ncc(C)c(-c4cnn(C(C)C)c4)n3)ccc2C1
- IC50 [2]: 287 nM
- IC50 [3]: 329 nM
- IC50 [1]: 656 nM

SMILES: Cc1cnc(Nc2ccc3c(c2)CN(CC#N)CC3)nc1-c1cnn(C(C)C)c1
- IC50 [2]: 76 nM
- IC50 [3]: 95 nM
- IC50 [1]: 425 nM

SMILES: Cc1cnc(Nc2ccc3c(n2)CCN(CCCO)C3)nc1-c1cnn(C(C)C)c1
- IC50 [2]: 1430 nM
- IC50 [3]: 2180 nM
- IC50 [1]: 2570 nM

SMILES: Cc1cnc(Nc2ccc3c(c2)CN(C(=O)/C=C/CN(C)C)CC3)nc1-c1cnn(C(C)C)c1
- IC50 [2]: 25 nM
- IC50 [3]: 15 nM
- IC50 [1]: 456 nM

SMILES: Cc1ccc(C(=O)/C=C/C(=O)N2CCc3ccc(Nc4ncc(C)c(-c5cnn(C(C)C)c5)n4)cc3C2)cc1
- IC50 [1]: 629 nM

SMILES: COC(=O)/C=C/CN1CCc2ccc(Nc3ncc(C)c(-c4cnn(C(C)C)c4)n3)cc2C1
- IC50 [2]: 120 nM
- IC50 [3]: 72 nM
- IC50 [1]: 430 nM

SMILES: Cc1cnc(Nc2ccc3c(c2)CN(C(=O)/C=C/C(=O)c2ccccc2)CC3)nc1-c1cnn(C(C)C)c1
- IC50 [2]: 61 nM
- IC50 [3]: 43 nM
- IC50 [1]: 535 nM
